Data set [1] in a line: Exploratory water solubility in 10 mM Tris-HCl buffer, pH 7.4. It is filed as physicochemical. The conditions noted are these: aqueous buffer (10 mM Tris-HCl), 20 °C. On the procedure: The exploratory water solubility of the compounds is determined at room temperature (20 °C) in 0.5 mL buffer solution (10 mM Tris-HCl, pH 7.4) in the microcentrifuge tubes (Eppendorf, 2.0 mL safe-lock caps). The solid compounds were added stepwise to the buffer solution. More substance is added once all the suspended material is dissolved until an equilibrium between undissolved and dissolved substance is reached. The suspension was mixed using a shaker (Heidolph Reax 2000) and treated 5 min in an ultrasound bath (Bandelin, Sonorex Super RK255H). The Gadolinium concentration of the test substance in the clear solution is measured by ICP-MS.

The nature of data set [2]: No-observed-adverse-effect level (NOAEL) in mice. To be noted: intravenous bolus injection.

What is called Solubility is the dissolved amount per volume that the medium holds. A low value points to a poorly soluble substance. Consider `CCOCCOCCOCCOc1ccc(C[C@H]2CN(CC(=O)[O-])CCN(CC(=O)[O-])CCN(CC(=O)O)CCN2CC(=O)[O-])cc1.[Gd+3]` [Example 5, Gadolinium-2,2′,2″-[(2S)-10-(carboxymethyl)-2-(4-{2-[2-(2-ethoxyethoxy)ethoxy]ethoxy}benzyl)-1,4,7,10-tetraazacyclododecane-1,4,7-triyl]triacetate], for which the Solubility in data set [1] is more than 284 mM.
As usually defined, the NOAEL is the highest tested level that showed no adverse finding. As for `CCOCCOc1ccc(C[C@H]2CN(CC(=O)[O-])CCN(CC(=O)[O-])CCN(CC(=O)O)CCN2CC(=O)[O-])cc1.[Gd+3]` [Example 4, Gadolinium-2,2′,2″-{(2S)-10-(carboxymethyl)-2-[4-(2-ethoxyethoxy)benzyl]-1,4,7,10-tetraazacyclododecane-1,4,7-triyl}triacetate], the Solubility in data set [1] was more than 738 mM. In addition, in data set [2], the NOAEL is recorded as 2.50 mmol Gd/kg bw.
For `COCCOCCOCCOc1ccc(C[C@H]2CN(CC(=O)[O-])CCN(CC(=O)[O-])CCN(CC(=O)O)CCN2CC(=O)[O-])cc1.[Gd+3]` [Example 1, Gadolinium-2,2′,2″-[(2S)-10-(carboxymethyl)-2-(4-{2-[2-(2-methoxyethoxy)-ethoxy]ethoxy}benzyl)-1,4,7,10-tetraazacyclododecane-1,4,7-triyl]triacetate], the Solubility in data set [1] is more than 201 mM.
Still for that read-out and setting: to `CCCCOc1ccc(C[C@H]2CN(CC(=O)[O-])CCN(CC(=O)[O-])CCN(CC(=O)O)CCN2CC(=O)[O-])cc1.[Gd+3]` (single isomer, unassigned; stereoisomer 2) [Example 13] belongs more than 43 mM; to `CCOc1ccc(C[C@H]2CN(CC(=O)[O-])CCN(CC(=O)[O-])CCN(CC(=O)O)CCN2CC(=O)[O-])cc1.[Gd+3]` (single isomer, unassigned; stereoisomer 1) [Example 10], more than 23 mM; to `CCOCCOCCOc1ccc(C[C@H]2CN(CC(=O)[O-])CCN(CC(=O)[O-])CCN(CC(=O)O)CCN2CC(=O)[O-])cc1.[Gd+3]` [Example 2, Gadolinium-2,2′,2″-[(2S)-10-(carboxymethyl)-2-{4-[2-(2-ethoxyethoxy)ethoxy]benzyl}-1,4,7,10-tetraazacyclododecane-1,4,7-triyl]triacetate], more than 55 mM.
Turning to `CCCCOc1ccc(C[C@H]2CN(CC(=O)[O-])CCN(CC(=O)[O-])CCN(CC(=O)O)CCN2CC(=O)[O-])cc1.[Gd+3]` (single isomer, unassigned; stereoisomer 1) [Example 12], in data set [1], the Solubility amounted to 211 mM.
Same read-out and setting: then `CCOc1ccc(CC2CN(CC(=O)[O-])CCN(CC(=O)[O-])CCN(CC(=O)O)CCN2CC(=O)[O-])cc1.[Gd+3]` (single isomer, unassigned; diastereomer 2) [Example 9, Gadolinium-2,2′,2″-[10-(carboxymethyl)-2-(4-ethoxybenzyl)-1,4,7,10-tetraazacyclododecane-1,4,7-triyl]triacetate (racemic diastereomer 2)], with more than 145 mM.
As to `CCOc1ccc(CC2CN(CC(=O)[O-])CCN(CC(=O)[O-])CCN(CC(=O)O)CCN2CC(=O)[O-])cc1.[Gd+3]` (stereo not shown) [Example 7, Gadolinium-2,2′,2″-[10-(carboxymethyl)-2-(4-ethoxybenzyl)-1,4,7,10-tetraazacyclododecane-1,4,7-triyl]triacetate], in data set [1], the Solubility is more than 403 mM. Besides, the NOAEL in data set [2] is recorded as 1.50 mmol Gd/kg bw.
Consider `COCCOCCOCCOc1ccc(C[C@@H]2CN(CC(=O)[O-])CCN(CC(=O)[O-])CCN(CC(=O)O)CCN2CC(=O)[O-])cc1.[Gd+3]` [Example 3, Gadolinium-2,2′,2″-[(2R)-10-(carboxymethyl)-2-(4-{2-[2-(2-methoxyethoxy)ethoxy]ethoxy}benzyl)-1,4,7,10-tetraazacyclododecane-1,4,7-triyl]triacetate], for which the Solubility in data set [1] is more than 166 mM.
As to `CCOc1ccc(C[C@H]2CN(CC(=O)[O-])CCN(CC(=O)[O-])CCN(CC(=O)O)CCN2CC(=O)[O-])cc1.[Gd+3]` (single isomer, unassigned; stereoisomer 2) [Example 11], in data set [1], the Solubility was more than 146 mM.
